Values joined by “and” are separate entries in the source; they are usually repeats but may differ in a detail not shown here. Equal values may be shown once.
Assays:
[1] = 1,000 ppm (v/v) or less concentration, room temperature; cited from earlier work
tomato [2] = experiment: Experimental Example 1: Efficacy test on tomato using emulsion (reddening grade); type: in vivo; details: individual tomatoes n=4
tomato [3] = experiment: Experimental Example 2: Efficacy test on tomato using oil based formulation (reddening grade); type: in vivo; details: 1.0 mM oil-based formulation, individual tomatoes n=4
In short: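 Tomatoes (n=4 per group) sprayed to surface saturation with 1.0 mM oil-based (xylene/hexane) cyclopropene formulations, versus untreated and solvent controls. Kept 3 days at 25–30 °C; ripening scored 0–5 by area of red coloration.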

[4] = Relative chemical stability of cyclopropenes measured by 1H-NMR; type: physicochemical
In short: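 Compounds in CDCl3 NMR tubes stored at −20° C. or room temperature and followed by 1H-NMR. Integrals of characteristic 1-alkylcyclopropene peaks (4–6.5 ppm, 1H; 0.8–0.9 ppm, 2H) compared against 1,1,3,3-tetramethylurea internal standard (2.80 ppm); stability expressed relative to chain-length-1 analogue.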

| SMILES | half life [1] [h] | reddening level (grade 0 to 5) (tomato [2]; 100 μM, Day 0, room temperature (25-30° C.)) | reddening level (grade 0 to 5) (tomato [2]; 100 μM, Day 1, room temperature (25-30° C.)) | reddening level (grade 0 to 5) (tomato [2]; 100 μM, Day 2, room temperature (25-30° C.)) | reddening level (grade 0 to 5) (tomato [2]; 100 μM, Day 3, room temperature (25-30° C.)) | reddening level (grade 0 to 5) (tomato [2]; 1.0 mM, Day 0, room temperature (25-30° C.)) | reddening level (grade 0 to 5) (tomato [2]; 1.0 mM, Day 1, room temperature (25-30° C.)) | reddening level (grade 0 to 5) (tomato [2]; 1.0 mM, Day 2, room temperature (25-30° C.)) | reddening level (grade 0 to 5) (tomato [2]; 1.0 mM, Day 3, room temperature (25-30° C.)) | Tomato results: reddening level (grade 0 to 5) (tomato [3]; Day 0, room temperature (25-30° C.)) | Tomato results: reddening level (grade 0 to 5) (tomato [3]; Day 1, room temperature (25-30° C.)) | Tomato results: reddening level (grade 0 to 5) (tomato [3]; Day 2, room temperature (25-30° C.)) | Tomato results: reddening level (grade 0 to 5) (tomato [3]; Day 3, room temperature (25-30° C.)) | chemical stability (in words) [4] | Stability (relative chemical stability, based on cyclopropenes having a chain length of 1) ([4]; 1H-NMR, CDCl3, stored at −20° C. or room temperature, relative to chain length 1) |
| --- | --- | --- | --- | --- | --- | --- | --- | --- | --- | --- | --- | --- | --- | --- | --- |
| CC1=CC1 [1-methylcyclopropene] | ≥ 240 | – | – | – | – | – | – | – | – | – | – | – | – | – | – |
| C1=C(CCCCCc2ccccc2)C1 [(5-Phenylpentyl), 1-(5-phenylpentyl)cyclopropene] | – | 0 (an area in which the surface of tomato was colored in pink was 10% or less) (2×) and 1 (an area in which the surface of tomato was completely colored in red was 10 to 40%) and 2 (an area in which the surface of tomato was completely colored in red was 40 to 70%) | 0 (an area in which the surface of tomato was colored in pink was 10% or less) (2×) and 2 (an area in which the surface of tomato was completely colored in red was 40 to 70%) (2×) | 0 (an area in which the surface of tomato was colored in pink was 10% or less) and 1 (an area in which the surface of tomato was completely colored in red was 10 to 40%) and 3 (an area in which the surface of tomato was completely colored in red was 70% or more and the bottom area remained green) (2×) | 1 (an area in which the surface of tomato was completely colored in red was 10 to 40%) and 2 (an area in which the surface of tomato was completely colored in red was 40 to 70%) and 3 (an area in which the surface of tomato was completely colored in red was 70% or more and the bottom area remained green) and 4 | 0 (an area in which the surface of tomato was colored in pink was 10% or less) (2×) and 1 (an area in which the surface of tomato was completely colored in red was 10 to 40%) and 2 (an area in which the surface of tomato was completely colored in red was 40 to 70%) | 0 (an area in which the surface of tomato was colored in pink was 10% or less) (2×) and 1 (an area in which the surface of tomato was completely colored in red was 10 to 40%) and 2 (an area in which the surface of tomato was completely colored in red was 40 to 70%) | 0 (an area in which the surface of tomato was colored in pink was 10% or less) (2×) and 1 (an area in which the surface of tomato was completely colored in red was 10 to 40%) and 2 (an area in which the surface of tomato was completely colored in red was 40 to 70%) | 0 (an area in which the surface of tomato was colored in pink was 10% or less) and 1 (an area in which the surface of tomato was completely colored in red was 10 to 40%) and 2 (an area in which the surface of tomato was completely colored in red was 40 to 70%) and 3 (an area in which the surface of tomato was completely colored in red was 70% or more and the bottom area remained green) | 0 (an area in which the surface of tomato was colored in pink was 10% or less) (2×) and 1 (an area in which the surface of tomato was completely colored in red was 10 to 40%) and 2 (an area in which the surface of tomato was completely colored in red was 40 to 70%) | 0 (an area in which the surface of tomato was colored in pink was 10% or less) (2×) and 1 (an area in which the surface of tomato was completely colored in red was 10 to 40%) and 2 (an area in which the surface of tomato was completely colored in red was 40 to 70%) | 0 (an area in which the surface of tomato was colored in pink was 10% or less) and 1 (an area in which the surface of tomato was completely colored in red was 10 to 40%) and 2 (an area in which the surface of tomato was completely colored in red was 40 to 70%) and 3 (an area in which the surface of tomato was completely colored in red was 70% or more and the bottom area remained green) | 1 (an area in which the surface of tomato was completely colored in red was 10 to 40%) (2×) and 3 (an area in which the surface of tomato was completely colored in red was 70% or more and the bottom area remained green) and 4 | much more stable | >>10 |
